Source: PubChem BioAssay (NCI)
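Method: 48-hour compound exposure of cells in 96-well plates, five concentrations, linear interpolation of endpoints. Definition used: TGI = concentration required for complete inhibition of growth.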

Legend:
Experiment in all cases: growth of human tumour cells (NCI), 48 h
A498 renal = test system: A498 renal
DLD-1 colon = test system: DLD-1 colon
DMS 114 small cell lung = test system: DMS 114 small cell lung
EKVX NSCLC = test system: EKVX NSCLC
HT29 colon = test system: HT29 colon
SF-268 CNS = test system: SF-268 CNS
SK-MEL-5 melanoma = test system: SK-MEL-5 melanoma
SNB-19 CNS = test system: SNB-19 CNS
TK-10 renal = test system: TK-10 renal
NCI/ADR-RES ovarian = test system: NCI/ADR-RES ovarian
PC-3 prostate = test system: PC-3 prostate

| SMILES | TGI (A498 renal) | TGI (DLD-1 colon) | TGI (DMS 114 small cell lung) | TGI (EKVX NSCLC) | TGI (HT29 colon) | TGI (SF-268 CNS) | TGI (SK-MEL-5 melanoma) | TGI (SNB-19 CNS) | TGI (TK-10 renal) | TGI (NCI/ADR-RES ovarian) | TGI (PC-3 prostate) |
| --- | --- | --- | --- | --- | --- | --- | --- | --- | --- | --- | --- |
| CCOC(=O)c1ccc(C)c(N=NN(C)C)c1 | > 100 µM | > 100 µM | > 100 µM | > 100 µM | > 100 µM | > 100 µM | > 100 µM | > 100 µM | > 100 µM |  |  |
| Nc1ccn(C2OC(CO)C(O)C2O)c(=O)c1 (stereo unspecified) |  | > 625 µM |  |  | > 625 µM | > 625 µM | > 625 µM | > 625 µM |  | > 625 µM |  |
| Cc1ccc(S(=O)(=O)C(C#N)c2nc3ccccc3nc2-n2ccnc2)cc1 (stereo unspecified) |  | > 100 µM | > 100 µM | > 100 µM | > 100 µM | > 100 µM | > 100 µM | > 100 µM | > 100 µM |  |  |
| COc1ccc(C2COc3cc(O)c(O)cc3C2)cc1 (stereo unspecified) | 17.4 µM | 25.3 µM |  | 49.9 µM | 204 µM | 127 µM | 72.4 µM | 214 µM |  | 27.1 µM |  |
| CC(=O)[C@@]1(O)CC[C@H]2[C@@H]3C[C@H](C)C4=CC(=O)C=C[C@]4(C)[C@@]3(F)[C@@H](O)C[C@@]21C | > 100 µM | > 100 µM | > 100 µM | > 100 µM | > 100 µM | > 100 µM | > 100 µM | > 100 µM | > 100 µM | > 100 µM | > 100 µM |
| CSc1ncnc2c1ncn2CCC#N | > 100 µM |  |  | > 100 µM | > 100 µM | > 100 µM | > 100 µM | > 100 µM | > 100 µM | > 100 µM | > 100 µM |
| Nc1[nH]nc2nc3ccc(C(F)(F)F)cc3nc12 | > 100 µM |  |  | > 100 µM | > 100 µM | > 100 µM | > 100 µM | > 100 µM | > 100 µM | > 100 µM | > 100 µM |
| O=C1NC2OC(C(O)CO)C(O)C2O1 (stereo unspecified) | > 100 µM |  | > 100 µM | > 100 µM | > 100 µM | > 100 µM | > 100 µM | > 100 µM | > 100 µM |  |  |
| O=C(CN(c1ccccc1)c1ccccc1)n1nnc2ccccc21 |  | > 100 µM | 85.7 µM | > 100 µM | > 100 µM | > 100 µM | 69.3 µM | > 100 µM | > 100 µM |  |  |
| OCc1ccc(C2CC(c3ccco3)=NN2c2ccccc2)o1 (stereo unspecified) |  |  | > 100 µM | > 100 µM | > 100 µM | > 100 µM | > 100 µM | > 100 µM | > 100 µM |  |  |
| CC(=O)O[C@H]1CC[C@@]2(C)C(=CC[C@H]3[C@@H]4C[C@H](N5CCOCC5)[C@H](OC(C)=O)[C@@]4(C)CC[C@@H]32)C1 | > 100 µM |  |  | > 100 µM | > 100 µM | > 100 µM | > 100 µM | > 100 µM | > 100 µM | > 100 µM | > 100 µM |
| Cc1ccc2c(c1)C(=O)C1(C2)Cc2cccc(C)c2C1=O (stereo unspecified) | > 100 µM |  |  | > 100 µM | > 100 µM | > 100 µM | > 100 µM | > 100 µM | > 100 µM | > 100 µM | > 100 µM |
| CCCCN=C(c1ccccc1)N1CCOCC1 | > 100 µM |  |  | > 100 µM | > 100 µM | > 100 µM | > 100 µM | > 100 µM | > 100 µM | > 100 µM | > 100 µM |
| CCOC(=O)NC(Nc1ccc([N+](=O)[O-])cc1)(C(F)(F)F)C(F)(F)F | > 100 µM |  |  | > 100 µM | > 100 µM | > 100 µM | > 100 µM | > 100 µM | > 100 µM | > 100 µM | > 100 µM |
| C[N+]12CCCCC1C(CN1C(=O)Cc3c4ccccc4c(c4ccccc34)CC1=O)CCC2 (stereo unspecified) | > 100 µM |  |  | > 100 µM | > 100 µM | > 100 µM | > 100 µM | > 100 µM | > 100 µM | > 100 µM | > 100 µM |
| C=C1C(=O)C=C[C@]2(C)CC[C@H]3C(=C)C(=O)O[C@@H]3[C@@H]12 | 13.5 µM |  |  | 8.7 µM | 3.24 µM | 11.7 µM | 5.93 µM | 87.6 µM | 1.98 µM | 7.02 µM | 15.7 µM |
| CCC/C(Cl)=N\OC(=O)Nc1ccc(OC(F)(F)F)cc1 | 54.8 µM |  |  | 40.1 µM | 42.4 µM | > 84.7 µM | 21.7 µM | > 58.7 µM | 12.4 µM | > 25.3 µM | 32.8 µM |

| SMILES | TGI (A498 renal) | TGI (DLD-1 colon) | TGI (DMS 114 small cell lung) | TGI (EKVX NSCLC) | TGI (HT29 colon) | TGI (SF-268 CNS) | TGI (SK-MEL-5 melanoma) | TGI (SNB-19 CNS) | TGI (TK-10 renal) | TGI (NCI/ADR-RES ovarian) | TGI (PC-3 prostate) |
| --- | --- | --- | --- | --- | --- | --- | --- | --- | --- | --- | --- |
| COc1cc2c3c(c1OC)C1(C=CC(=O)C=C1)C[C@H]3N(C)CC2 |  | > 100 µM | > 100 µM | > 100 µM | > 100 µM | > 100 µM | > 100 µM | > 100 µM | > 100 µM |  |  |
| CCOC(=O)NC(Nc1cccc(C(F)(F)F)c1)(C(F)(F)F)C(F)(F)F | > 100 µM |  |  | > 100 µM | > 100 µM | > 100 µM | > 100 µM | > 100 µM | > 100 µM | > 100 µM | > 100 µM |
| CC1CCCC(CC(=O)O)(CC(=O)O)C1 (stereo unspecified) | > 100 µM |  |  | > 100 µM | > 100 µM | > 100 µM | > 100 µM | > 100 µM | > 100 µM | > 100 µM | > 100 µM |
| COc1c(C(C)C)cc2c3c1OC(=O)[C@@]31CCCC(C)(C)C1CC2 (stereo partly specified) |  | > 100 µM |  | 65.3 µM | > 100 µM | > 100 µM | 28.4 µM | 51.8 µM | 99.8 µM |  |  |
| COc1ccc2cc(C(C)C(=O)N3CCOC3=O)ccc2c1 (stereo unspecified) | > 100 µM |  |  | > 100 µM | > 100 µM | > 100 µM | > 100 µM | > 100 µM | > 100 µM | > 100 µM | > 100 µM |
| CC(C)(C)C(=O)CC1=Nc2ccccc2SC1(O)CC(=O)C(C)(C)C (stereo unspecified) | > 100 µM |  |  | 59.6 µM | 31.5 µM | 81.1 µM | 62.7 µM | > 100 µM | > 100 µM | 66.8 µM | 73.6 µM |
| NC(CCC(=O)NC(CSCC1C(=O)Nc2ccccc21)C(=O)NCC(=O)O)C(=O)O (stereo unspecified) | 33.1 µM |  |  | 31.2 µM | 14.7 µM | 15.5 µM | > 44.8 µM | > 100 µM | 18.9 µM | 19.7 µM | 49 µM |
| Oc1cccc(-c2nc3cc(F)ccc3s2)c1 | 27.6 µM |  |  | 32.5 µM | 31.7 µM | 65.6 µM | 25 µM | 99 µM | 37.4 µM | 54.3 µM | 65 µM |
| C=C(Cl)C(C)(Cl)CCC(Br)C(C)(C)Cl (stereo unspecified) | > 100 µM |  |  | > 100 µM | 29.5 µM | > 100 µM | 30.8 µM | > 100 µM | > 100 µM | 92.1 µM | > 100 µM |
| C=C([C@@]1(O)C[C@H]2[C@H](CCC2(OC)OC)[C@@H]2c3ccccc3O[C@@H]21)[Si](C)(C)C | > 100 µM |  |  | > 100 µM | > 100 µM | > 100 µM | > 100 µM | > 100 µM | > 100 µM | > 100 µM | > 100 µM |
| CSc1sc2ccccc2[s+]1 | > 100 µM | > 100 µM | > 100 µM |  | > 100 µM | > 100 µM | > 100 µM | > 100 µM | > 100 µM |  |  |
| O=C(O)/C=c1/c2ccccc2n2nc3ccccc3c12 | 46 µM |  |  | > 100 µM | > 100 µM | > 100 µM | 30.4 µM | 87.3 µM | > 100 µM | 81 µM | > 100 µM |
| Cn1c(COC(=O)Nc2ccccc2)c(COC(=O)Nc2ccccc2)c2ccc3cc(Cl)c(Cl)cc3c21 | 4.25 µM |  |  | 44.5 µM | 23.6 µM | 21.9 µM | 16.1 µM | > 75 µM | 22.7 µM | 66.7 µM | 20.4 µM |
| C=CCOc1ccc(C2(O)c3ccccc3C3=NCCCN32)cc1 (stereo unspecified) | > 100 µM |  |  | > 100 µM | > 100 µM | > 100 µM | 45.7 µM | > 100 µM | > 100 µM | > 100 µM | > 100 µM |
| O=C1c2ccccc2C2(c3ccc(Cl)cc3)N[C@H]3CCCC[C@@H]3N12 (stereo partly specified) | > 100 µM |  |  | > 100 µM | > 100 µM | > 100 µM | > 100 µM | > 100 µM | > 100 µM | > 100 µM | > 100 µM |
| O=C1c2cccnc2-c2nccc3c2c1nc1cc(Br)ccc13 | 0.0659 µM |  |  | 2.52 µM | 2.45 µM | 0.555 µM | 0.263 µM | 0.88 µM | 2.33 µM | 0.0711 µM | 1.12 µM |
